Data set [1] concerns mice. The following applies: cited from earlier work.
For another data set, the system named is monkeys. The following applies: cited from earlier work.
For another data set, the system named is prolactin (PRL). The following applies: preclinical research; cited from earlier work.
For data set [2], the system named is healthy subjects. The experiment in a line: Effects on mood on the Adjective Mood Rating Scale (AMRS). It is filed as in vivo, human. The procedure: (§1) Study design: The present study compares the acute subjective, physiological and endocrine effects of S-MDMA (125 mg), R-MDMA (125 and 250 mg), MDMA (125 mg) using a placebo-controlled double-blind 5-period cross-over design in 24 healthy subjects. Conditions are 1.) R-MDMA 125 mg, 2). R-MDMA 250 mg, 3) S-MDMA 125 mg, 4) MDMA 125 mg, 5) placebo. Treatment order is counterbalanced. Washout periods between substance administrations are at least 10 days. Study days include a 10-hour study session with a subsequent single measurement (short visit) the next morning (24 hours after drug administration).
Psychometric assessments: Visual Analog Scale (VAS): VASs is repeatedly used to assess subjective alterations in consciousness over time. Single scales are presented as 100 mm horizontal lines marked with “not at all” on the left and “extremely” on the right. The following VAS items are used: “any drug effect”, “good drug effect”, “bad drug effect”, “stimulated”, “liking”, “happy”, “content”, “talkative”, “open”, “trust”, “feeling close to others”, “anxiety”, “alteration of vision”, “alterations of hearing”, “sounds seem to influence what I see”, “alteration of sense of time”, “the boundaries between myself and my surroundings seem to blur”, “want to be with other people”, and “want to be alone”. Scales are administered before and repeatedly after substance administration and take approximately 2 minutes to fill out. The maximal ratings (Emax, 0-100) and areas under the effect-time curve (AUEC) are defined for each VAS and Emax and AUEC values compared between treatments using analysis of variance. 5-Dimensions of Altered States of Consciousness (5D-ASC): The 5 Dimensions of Altered States of Consciousness (5D-ASC) Scale is a questionnaire containing visual analog scales for 94 items (Studerus et al., 2010). The instrument contains five scales assessing mood, anxiety, derealization, depersonalization, changes in perception, auditory alterations, and reduced vigilance. The scale is well-validated (Studerus et al., 2010) and used internationally to evaluate effects of many other psychoactive substances. The overall psychedelic experience is reflected by the total […] score. Each item of the scale is scored on a 0-100 mm VAS. The attribution of the individual items to the subscales of the 5D-ASC is analyzed according to (Studerus et al., 2010). The 5D-ASC scale is administered once at the end of the session and subjects are instructed to retrospectively rate peak alterations that have been experienced during the study session. Adiective Mood Rating Scale (AMRS): The Adjective Mood Rating Scale (AMRS or EWL60S) is a 60-item Likert scale that allows repeated assessment of mood in 6 dimensions: Activation, inactivation, well-being, anxiety/depressed mood, extra- and introversion, and emotional excitability. The German EWL60S version is used. The AMRS consists of subscales measuring “activation,” “positive mood,” “extraversion,” “introversion,” “inactivation,” and “emotional excitability. The scale has previously been used to evaluate effects of many other psychoactive substances. Emax and AUEC scores will be defined for each subscale and compared between treatments using analysis of variance. The AMRS is administered repeatedly throughout the study session and once 3 days after each session. States of Consciousness Questionnaire (SCQ): In the SCQ, 100-items are rated on a six-point scale. Forty-three items embedded into this questionnaire comprise the Mystical Experience Questionnaire (MEQ) (MacLean et al., 2011) which is sensitive to the effects of psychedelic substances such as LSD. […]

Data set [3] has as its system rhesus monkeys. The following applies: indicative of abuse-liability; cited from earlier work.
In data set [4] the test system is dopamine (DA), norepinephrine (NE), serotonin (5-HT), and oxytocin. The following applies: preclinical research; cited from earlier work.
For data set [5] the following is noted: administered repeatedly at high doses; cited from earlier work.
Data set [6] concerns rhesus monkeys. The following applies: cited from earlier work.
Data set [7] concerns mice. The following applies: cited from earlier work. The source holds these as a separate data set.
For the next data set, the system named is animals. The following applies: cited from earlier work.
Data set [8] deals with healthy subjects. The experiment in a line: Endocrine effects (plasma prolactin and cortisol). In kind it is in vivo, human. The method, then:
as §1
Endocrine effects: Cortisol and prolactin: Cortisol and prolactin are determined as biological markers of serotonergic activity (Seifritz et al., 1996). Plasma concentrations are determined by routine immune assays. Oxytocin and vasopressin: MDMA increase circulating oxytocin (Hysek et al., 2014a) and vasopressin or its precursor copeptin (Simmler et al., 2011). These neurohormones are thought to mediate neurocognitive and adverse effects of MDMA and the role of R-versus S-MDMA remains to be explored. Oxytocin and vasopressin plasma levels are measured before and after substance administration. Concentrations are determined using immunoassays.

The subject of a further data set is humans. The following applies: earlier human study; R-MDMA doses up to 200 mg; cited from earlier work.
For another data set, the system named is serotonin. The following applies: rat, in vivo; cited from earlier work.

Turning to `CN[C@H](C)Cc1ccc2c(c1)OCO2` [R-MDMA, R(−)-MDMA], the “peak effects on prosocial behaviors” value with mice [1] and in the data set with monkeys was “greater peak effects than S-MDMA” throughout. Also, in the data set on prolactin (PRL), the “release of prolactin (PRL)” value was “release prolactin”. Further, the “effects on the AMRS” value in the data set with healthy subjects [2] (125 mg) and with healthy subjects [2] (250 mg) was “comparable effects” throughout. The “AMRS “Extraversion”” value with healthy subjects [2] (125 mg R-MDMA versus (±)-MDMA and S-MDMA) is given as “less”. The “AMRS “Introversion”” value with healthy subjects [2] (250 mg R-MDMA versus (±)-MDMA) is “significant more”.
`CN[C@@H](C)Cc1ccc2c(c1)OCO2` [S-MDMA, S(+)-MDMA]: the “reinstatement of amphetamine responding” value in the data set on rhesus monkeys [3] was “reinstated amphetamine responding”. In addition, the “release of dopamine (DA), norepinephrine (NE), serotonin (5-HT), and oxytocin” value in [4] was “mainly releases”. Also, in data set [5], the neurotoxicity result is “more neurotoxic than R-MDMA”. Moreover, the “potency to maintain self-administration” value with rhesus monkeys [6] is “more potent than R-MDMA”. For the same compound, the lethal doses result with mice [7] was “similar”. The hyperthermia entry with animals is recorded as “induced hyperthermia”. The prolactin release result with healthy subjects [8] (125 mg S-MDMA compared to (±)-MDMA and 125 mg R-MDMA) is recorded as “increased more”. Besides, the cortisol release entry with healthy subjects [8] (125 mg S-MDMA compared to (±)-MDMA and both doses of R-MDMA) is recorded as “increased cortisol release more”. Besides, in the data set with humans, the activity in humans entry is reported as “more active than the R-enantiomer”. Moreover, in the data set with healthy subjects [2] (125 mg), the “effects on the AMRS” value is on record as “comparable effects”. The “AMRS “Emotional excitation”” value in the data set with healthy subjects [2] (125 mg S-MDMA versus both doses of R-MDMA) is “more”. In addition, the depleting serotonin result with serotonin is reported as “more effective”.
